Laboratory results as given in US20170280720A1, “ARGININE […] INHIBITORS AND USES THEREOF” (EPIZYME, INC., priority 2014, published 2017).
pIC50: −log10 of the molar value.

Molecular target: T1, Human CARM1 (PRMT4) (Homo sapiens, UniProt Q86X55)
T1 construct: Flag-CARM1-His; made in house; host or cells: HEK 293F cells (BacMam baculovirus, pFastBacMam)
T1 sequence (Q86X55 2-585 isoform Q86X55-1): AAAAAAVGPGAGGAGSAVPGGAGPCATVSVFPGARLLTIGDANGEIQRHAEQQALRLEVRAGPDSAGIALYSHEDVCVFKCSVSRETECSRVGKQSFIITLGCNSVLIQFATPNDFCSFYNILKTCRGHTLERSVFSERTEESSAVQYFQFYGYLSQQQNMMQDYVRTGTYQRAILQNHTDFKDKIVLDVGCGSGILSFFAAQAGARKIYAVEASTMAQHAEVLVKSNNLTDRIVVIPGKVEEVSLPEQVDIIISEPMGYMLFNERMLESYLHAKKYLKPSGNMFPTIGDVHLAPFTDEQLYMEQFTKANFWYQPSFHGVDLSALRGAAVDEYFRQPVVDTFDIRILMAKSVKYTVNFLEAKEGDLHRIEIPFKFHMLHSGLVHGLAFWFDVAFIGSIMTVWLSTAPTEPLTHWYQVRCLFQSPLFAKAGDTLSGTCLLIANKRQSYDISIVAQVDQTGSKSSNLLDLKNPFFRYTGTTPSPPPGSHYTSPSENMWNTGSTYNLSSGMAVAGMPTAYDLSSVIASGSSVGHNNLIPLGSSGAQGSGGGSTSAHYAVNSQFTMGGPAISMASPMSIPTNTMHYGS
Assay: CARM1 biochemical assay (3H-SAM Flashplate, peptide substrate)
Settings: read-out: CARM1_ IC50
Outline: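 FLAG/His-tagged human CARM1 (isoform 1, Δ539-561, baculovirus-expressed), 0.25 nM, preincubated 30 min at room temperature with compound (2% DMSO) in 20 mM Bicine pH 7.6, then reacted with 30 nM 3H-SAM and 250 nM biotinylated H3 16-30 peptide (R26 monomethyl). Stopped with 300 uM cold SAM; labelled peptide captured on streptavidin Flashplate; % inhibition versus DMSO and 1 mM SAH controls fitted to a 4- or 3-parameter curve.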

SMILES | pIC50
CNCCN(C)Cc1cccc(-c2cc(Oc3ccccc3)c3cnn(C(C)C)c3n2)c1 [Compound 45] | 7.08
CNCCN(C)Cc1cccc(-c2cc(C(=O)NCc3c(F)cccc3F)c3cnn(C(C)C)c3n2)c1 [Compound 47] | 7.65
CC(C)n1ncc2c(C(=O)NCc3ccccc3)cc(-c3cccc(CNCCN)c3)cc21 [Compound 134] | 6.48
CNCCN(C)Cc1cccc(-c2cc(NS(C)(=O)=O)c3cnn(C(C)C)c3n2)c1 [Compound 169] | 6.90
CC(C)n1ncc2c(C(=O)NCc3c(F)cccc3F)cc(-c3cccc(CN(C)CCN)c3)nc21 [Compound 37] | 8.26
CC(C)n1ncc2c(C(=O)NCc3ccc(F)cc3)cc(-c3cccc(CN(C)CCN)c3)nc21 [Compound 25] | 7.48
CNCCN(C)Cc1cccc(-c2cc(NC(=O)NC)c3cnn(C(C)C)c3n2)c1 [Compound 138] | 7.73
CC(C)n1ncc2c(C(=O)N(C)Cc3ccccc3)cc(-c3cccc(CN(C)CCN)c3)nc21 [Compound 31] | 7.66
CNCCN(C)Cc1cc(-c2cc(C(=O)NC3CCOCC3)c3cnn(C(C)C)c3n2)ccc1F [Compound 130] | 6.88
NCCNCc1ccc(-c2cnc3c(c2)OCC(=O)N3)cc1 [Compound 358] | 5.20
Cc1c(C(=O)NCc2ccccc2)cc(-c2cccc(CN(C)CCN)c2)c2cn[nH]c12 [Compound 15] | 6.01
CC(C)n1cnc2cc(-c3cccc(CN(C)CCN)c3)ccc21 [Compound 32] | 5.15
CC(C)n1cc2c(N)cc(-c3cccc(CN(C)CCN)c3)nc2n1 [Compound 13] | 5.77
CNCCN(C)Cc1cccc(-c2cc(C(=O)N[C@@H](C)c3ccccc3)c3cn[nH]c3n2)c1 [Compound 12] | 7.10
COc1ccc(Cn2cnc3ccc(-c4ccc(CNCCN)cc4)cc32)cc1 [Compound 132] | 5.14
CC(C)n1ncc2c(C(=O)NCc3ccccc3)cc(-c3cccc(CN(C)CCN)c3)cc21 [Compound 14] | 6.87

SMILES | pIC50
CNCCN(C)Cc1cccc(-c2cc(Nc3ncc(C)s3)c3cnn(C(C)C)c3n2)c1 [Compound 20] | 7.85
CC(C)n1ncc2c(C(=O)N[C@@H](C)c3ccccc3)cc(-c3cccc(CNCCN)c3)nc21 [Compound 160] | 7.55
CC(C)n1ncc2c(C(=O)NC3CCOCC3)cc(-c3cccc(CN(C)CCN)c3)nc21 [Compound 148] | 7.96
Cc1ccc(-n2cnc3cc(-c4ccc(CNCCN)cc4)ccc32)cc1 [Compound 131] | 5.55
Cc1nn(C(C)C)c2nc(-c3cccc(CN(C)CCN)c3)cc(N3CCOCC3)c12 [Compound 22, N1-(3-(1-isopropyl-3-methyl-4-morpholino-1H-pyrazolo[3,4-b]pyridin-6-yl)benzyl)-N1-methylethane-1,2-diamine] | 8.05
COc1ccc(Cn2cnc3ccc(-c4ccc(CN(C)CCN)cc4)cc32)cc1 [Compound 16] | 5.39
NCCNCc1ccc(-c2cnc3c(c2)CCC(=O)N3)cc1 [Compound 156] | 5.58
CN(CCN)Cc1cccc(-c2cc(C(=O)NC3CCOCC3)c3cnn(C)c3n2)c1 [Compound 158] | 7.41
CC(C)n1ncc2c(C(=O)NCC3CCOCC3)cc(-c3cccc(CN(C)CCNC4CC4)c3)nc21 [Compound 167] | 7.01
N#Cc1cccc(Cn2cnc3ccc(-c4ccc(CNCCN)cc4)cc32)c1 [Compound 145] | 5.10
CCC(=O)c1cc(-c2cccc(CN(C)CCNC)c2)nc2c1cnn2C(C)C [Compound 128] | 7.51
NCCNCc1ccc(-c2ccc3ncn(C4CCNCC4)c3c2)cc1 [Compound 157] | 5.34
CNCCN(C)Cc1cccc(-c2cc(C(=O)NCC3CCOCC3)c3cnn(C4CC4)c3n2)c1 [Compound 26] | 7.58
CNCCN(C)Cc1cccc(-c2cc(OCC(F)(F)F)c3cnn(C(C)C)c3n2)c1 [Compound 154] | 7.33
CC(C)n1ncc2c(C(=O)N[C@@H](C)c3ccccc3)cc(-c3cccc(CN(C)CCN)c3)cc21 [Compound 10] | 7.35
